From US5475007A, “1,2,3,4-tetrahydroquinoline-2,3,4-trione-3 or 4-oximes and the use thereof” (priority 1993, dated 1995)
pIC50, pKd, pKi: −log10 of the molar value. Read-outs that look alike come from different tables or passages of the source.

Experiments:
[1] = biological target: glycine binding site of the NMDA receptor (Rattus norvegicus, UniProt P35439); experiment: 1 μM glycine-stimulated [^3 H]-MK801 binding assay (glycine binding assay); details: for potency relative to DCK: DCK = 5,7-dichlorokynurenic acid; for binding to the glycine receptor / selectivity for the glycine receptor: in words
[2] = in words; cited from earlier work
[3] = test system: glycine binding site of the NMDA receptor; details: cited from earlier work
[4] = mouse maximum electroshock seizure model (i.p.); type: in vivo; details: 70 mg/kg i.p. in DMSO, 1 hour before stimulus, 10 mice
Protocol: 5,7-Dichloro-1,2,3,4-tetrahydroquinoline-2,3,4-trione-3-oxime was evaluated for anticonvulsant activity after i.p. administration in the mouse maximum electroshock seizure model. Mice, 30-35 g (male) were injected i.p. with 70 mg/kg of the drug dissolved in DMSO (1 ul/g). Ten mice each were used in the drug and control groups. The control group was injected with an equal volume of DMSO. Seizures were elicited by stimulation with corneal electrodes. The stimulation parameters for eliciting the seizures were as follows: 50 mA, 60 pulses/second square wave, 0.8 ms pulse width, 0.2 sec length of stimulus. Under these conditions, 100% of control animals developed tonic hindlimb extension immediately after the corneal electrical stimulation. A Hugo Basile electroshock seizure stimulator was used for these experiments. The seizure stimulus was applied 1 hour after injection of the drug.

[5] = cited from earlier work; for PCP-like behavioral side effects: in words
[6] = in words; cited from earlier work; remark: listed apart in the source
PCP receptor = details: Wong et al. 1986; cited from earlier work
[7] = pigeons; cited from earlier work
[8] = Table 1, glycine binding site, read-out: Ki Gly

## O=C1Nc2cc(Cl)c(Cl)c(Cl)c2C(=O)C1=NO [Compound 17e, 5,6,7-Trichloro-1,2,3,4-tetrahydroquinoline-2,3,4-trione-3-oxime]
[1]
  pKi: 7.30
  potency relative to DCK: about 400 % of DCK

## O=C1Nc2cc(Cl)c(Cl)cc2C(=O)C1=NO [Compound 17c, 6,7-Dichloro-1,2,3,4-tetrahydroquinoline-2,3,4-trione-3-oxime]
[1]
  pKi: 7.30
  potency relative to DCK: 439 % of DCK

## O=C(O)c1cc(O)c2ccc(Cl)cc2n1 [7-Cl-kynurenic acid]
[2]
  penetration of the blood/brain barrier: cannot penetrate the blood/brain barrier
[3]; in words
  receptor binding affinity in vitro: relatively high receptor binding affinity in vitro

## O=C1Nc2ccc(Cl)c(Cl)c2C(=O)C1=NO [Compound 17d, 5,6-Dichloro-1,2,3,4-tetrahydroquinoline-2,3,4-trione-3-oxime]
[1]
  pKi: 6.44
  potency relative to DCK: about 55 % of DCK

## O=C(O)c1cc(O)c2c(Cl)cc(Cl)cc2n1 [5,7-dichlorokynurenic acid]
[3]; in words
  receptor binding affinity in vitro: relatively high receptor binding affinity in vitro

## O=C1Nc2cc(Cl)cc(Cl)c2C(=O)C1=NO [Compound 17b, 5,7-Dichloro-1,2,3,4-tetrahydroquinoline-2,3,4-trione-3-oxime]
[1]
  pKi: 7.70
  potency relative to DCK: 1126 % of DCK
[1]; Ki ratio versus 17a
  times more active than the unsubstituted compound 17a: about 1000 times
[4]
  prevention of seizures: prevented seizures from occurring in out of 10 animals

## O=C(O)[C@@H]1C[C@H](CP(=O)(O)O)CCN1 [CGS 19755]
[5]
  PCP-like behavioral side effects: adverse PCP-like behavioral side effects
[6]
  neuroprotective efficacy: have neuroprotective efficacy

## O=C(O)[C@@H]1C[C@H]2C[C@@H](CP(=O)(O)O)CC[C@H]2CN1 [LY274614]
[6]
  neuroprotective efficacy: have neuroprotective efficacy

## O=C(O)c1cc2ccccc2[nH]1 [indole-2-carboxylic acid]
[2]
  penetration of the blood/brain barrier: cannot penetrate the blood/brain barrier
[3]; in words
  receptor binding affinity in vitro: relatively high receptor binding affinity in vitro

## O=C1Nc2ccccc2C(=NO)C1=O [Compound 14a, 1,2,3,4-Tetrahydroquinoline-2,3,4-trione-4-oxime]
[1]; 1 μM glycine
  pIC50: 4.74
[1]
  potency relative to DCK: 14 % of DCK
  binding to the glycine receptor: high binding
  selectivity for the glycine receptor: highly selective
[1]; [8]
  pKi: 5.77

## C[C@]12N[C@H](Cc3ccccc31)c1ccccc12 [MK-801]
[5]
  PCP-like behavioral side effects: adverse PCP-like behavioral side effects
[6]
  neuroprotective efficacy: neuroprotective efficacy both in vitro and in vivo
PCP receptor
  pKd: ~8.52

## CNC1(c2ccccc2Cl)CCCCC1=O (centres unmarked) [ketamine]
[6]
  neuroprotective efficacy: neuroprotective efficacy both in vitro and in vivo

## NC1CCN(O)C1=O (racemic) [HA-966]
[2]
  penetration of the blood/brain barrier: sufficiently penetrates the blood/brain barrier
[3]; in words
  agonism and affinity at the glycine binding site: partial agonist with micromolar affinity for the glycine binding site

## O=C1Nc2ccccc2C(=O)C1=NO [Compound 17a, 1,2,3,4-Tetrahydroquinoline-2,3,4-trione-3-oxime]
[1]
  pKi: 4.70
  potency relative to DCK: 1.3 % of DCK
  binding to the glycine receptor: high binding
  selectivity for the glycine receptor: highly selective

## CC(=O)ON=C1C(=O)Nc2cc(Cl)cc(Cl)c2C1=O [Compound 18b, 5,7-Dichloro-1,2,3,4-tetrahydroquinoline-2,3,4-trione-3-acetyloxime]
[1]
  potency relative to DCK: 142 % of DCK
[1]; [8]
  pKi: 6.82
[1]; glycine/NMDA receptor, read-out: Ki value
  pKi: 6.80

## NCC(=O)O [glycine]
[3]; used in Cheng and Prusoff equation, read-out: known affinity of glycine for the glycine binding site
  pKd: 7.00

## COc1ccc2c(c1)[C@]13CCCC[C@@H]1[C@H](C2)N(C)CC3 [dextromethorphan]
[6]
  neuroprotective efficacy: neuroprotective efficacy both in vitro and in vivo

## c1ccc(C2(N3CCCCC3)CCCCC2)cc1 [PCP, phencyclidine]
[5]; rodents
  behavioral excitation (hyperlocomotion): behavioral excitation
[7]
  katalepsy: characteristic katalepsy in pigeons
[6]
  neuroprotective efficacy: neuroprotective efficacy both in vitro and in vivo
